Source: ChEMBL document CHEMBL4138123, “Design, synthesis and biological evaluation of novel pyrazolochalcones as potential modulators of PI3K/Akt/mTOR pathway and inducers of apoptosis in breast cancer cells” (Eur J Med Chem, 2017)

Assays:
Format in all cases: functional
MCF7 = assay: Cytotoxicity against human MCF7 cells assessed as cell growth at 10 uM after 48 hrs by sulforhodamine B assay relative to control; settings: MCF7, 48 h, read-out: Activity
MDA-MB-468 [1] = assay: Cytotoxicity against human MDA-MB-468 cells assessed as cell growth at 10 uM after 48 hrs by sulforhodamine B assay relative to control; settings: MDA-MB-468, 48 h, read-out: Activity
SF-539 [2] = assay: Cytotoxicity against human SF539 cells assessed as cell growth at 0.1 uM after 48 hrs by sulforhodamine B assay relative to control; settings: SF-539, 48 h, read-out: Activity
UACC-257 = assay: Cytotoxicity against human UACC257 cells assessed as cell growth at 1 uM after 48 hrs by sulforhodamine B assay relative to control; settings: UACC-257, 48 h, read-out: Activity
SF-539 [3] = assay: Cytotoxicity against human SF539 cells assessed as cell growth at 1 uM after 48 hrs by sulforhodamine B assay relative to control; settings: SF-539, 48 h, read-out: Activity
M14 = assay: Cytotoxicity against human M14 cells assessed as growth inhibition after 48 hrs by sulforhodamine B assay; settings: M14, 48 h
DU-145 [4] = assay: Cytotoxicity against human DU145 cells assessed as cell growth at 0.01 uM after 48 hrs by sulforhodamine B assay relative to control; settings: DU-145, 48 h, read-out: Activity
NCI-H23 = assay: Cytotoxicity against human NCI-H23 cells assessed as cell growth at 0.1 uM after 48 hrs by sulforhodamine B assay relative to control; settings: NCI-H23, 48 h, read-out: Activity
SK-MEL-28 = assay: Cytotoxicity against human SK-MEL-28 cells assessed as cell growth at 1 uM after 48 hrs by sulforhodamine B assay relative to control; settings: SK-MEL-28, 48 h, read-out: Activity
SK-MEL-5 = assay: Cytotoxicity against human SK-MEL-5 cells assessed as cell growth at 100 uM after 48 hrs by sulforhodamine B assay relative to control; settings: SK-MEL-5, 48 h, read-out: Activity
CCRF-CEM [5] = assay: Cytotoxicity against human CCRF-CEM cells assessed as cell growth at 1 uM after 48 hrs by sulforhodamine B assay relative to control; settings: read-out: Activity
PC-3 [6] = assay: Cytotoxicity against human PC3 cells assessed as cell growth at 100 uM after 48 hrs by sulforhodamine B assay relative to control; settings: PC-3, 48 h, read-out: Activity
MDA-MB-468 [7] = assay: Cytotoxicity against human MDA-MB-468 cells assessed as growth inhibition after 48 hrs by sulforhodamine B assay; settings: MDA-MB-468, 48 h
OVCAR-4 [8] = assay: Cytotoxicity against human OVCAR4 cells assessed as cell growth at 0.1 uM after 48 hrs by sulforhodamine B assay relative to control; settings: OVCAR-4, 48 h, read-out: Activity
SW-620 = assay: Cytotoxicity against human SW620 cells assessed as cell growth at 0.1 uM after 48 hrs by sulforhodamine B assay relative to control; settings: SW-620, 48 h, read-out: Activity
CCRF-CEM [9] = assay: Cytotoxicity against human CCRF-CEM cells assessed as cell growth at 0.1 uM after 48 hrs by sulforhodamine B assay relative to control; settings: read-out: Activity
DU-145 [10] = assay: Cytotoxicity against human DU145 cells assessed as cell growth at 1 uM after 48 hrs by sulforhodamine B assay relative to control; settings: DU-145, 48 h, read-out: Activity
OVCAR-3 = assay: Cytotoxicity against human OVCAR3 cells assessed as cell growth at 10 uM after 48 hrs by sulforhodamine B assay relative to control; settings: OVCAR-3, 48 h, read-out: Activity
NCI/ADR-RES [11] = assay: Cytotoxicity against human NCI/ADR-RES cells assessed as cell growth at 1 uM after 48 hrs by sulforhodamine B assay relative to control; settings: read-out: Activity
MDA-MB-435 [12] = assay: Cytotoxicity against human MDA-MB-435 cells assessed as cell growth at 0.01 uM after 48 hrs by sulforhodamine B assay relative to control; settings: MDA-MB-435, 48 h, read-out: Activity
Hs-578T = assay: Cytotoxicity against human Hs 578T cells assessed as cell growth at 0.1 uM after 48 hrs by sulforhodamine B assay relative to control; settings: read-out: Activity
U-251 [13] = assay: Cytotoxicity against human U251 cells assessed as cell growth at 10 uM after 48 hrs by sulforhodamine B assay relative to control; settings: U-251, 48 h, read-out: Activity
PC-3 [14] = assay: Cytotoxicity against human PC3 cells assessed as cell growth at 0.01 uM after 48 hrs by sulforhodamine B assay relative to control; settings: PC-3, 48 h, read-out: Activity
LOX IMVI = assay: Cytotoxicity against human LOXIMVI cells assessed as growth inhibition after 48 hrs by sulforhodamine B assay
U-251 [15] = assay: Cytotoxicity against human U251 cells assessed as cell growth at 1 uM after 48 hrs by sulforhodamine B assay relative to control; settings: U-251, 48 h, read-out: Activity
NCI-H226 [16] = assay: Cytotoxicity against human NCI-H226 cells assessed as cell growth at 10 uM after 48 hrs by sulforhodamine B assay relative to control; settings: NCI-H226, 48 h, read-out: Activity
SR = assay: Cytotoxicity against human SR cells assessed as cell growth at 0.01 uM after 48 hrs by sulforhodamine B assay relative to control; settings: read-out: Activity
OVCAR-8 = assay: Cytotoxicity against human OVCAR8 cells assessed as cell growth at 1 uM after 48 hrs by sulforhodamine B assay relative to control; settings: OVCAR-8, 48 h, read-out: Activity
NCI/ADR-RES [17] = assay: Cytotoxicity against human NCI/ADR-RES cells assessed as cell growth at 0.1 uM after 48 hrs by sulforhodamine B assay relative to control; settings: read-out: Activity
COLO 205 = assay: Cytotoxicity against human COLO205 cells assessed as cell growth at 0.1 uM after 48 hrs by sulforhodamine B assay relative to control; settings: COLO 205, 48 h, read-out: Activity
NCI-H226 [18] = assay: Cytotoxicity against human NCI-H226 cells assessed as cell growth at 0.01 uM after 48 hrs by sulforhodamine B assay relative to control; settings: NCI-H226, 48 h, read-out: Activity
HCT-15 = assay: Cytotoxicity against human HCT15 cells assessed as cell growth at 10 uM after 48 hrs by sulforhodamine B assay relative to control; settings: HCT-15, 48 h, read-out: Activity
OVCAR-4 [19] = assay: Cytotoxicity against human OVCAR4 cells assessed as cell growth at 100 uM after 48 hrs by sulforhodamine B assay relative to control; settings: OVCAR-4, 48 h, read-out: Activity
HT-29 = assay: Cytotoxicity against human HT-29 cells assessed as cell growth at 0.1 uM after 48 hrs by sulforhodamine B assay relative to control; settings: HT-29, 48 h, read-out: Activity
MDA-MB-435 [20] = assay: Cytotoxicity against human MDA-MB-435 cells assessed as cell growth at 1 uM after 48 hrs by sulforhodamine B assay relative to control; settings: MDA-MB-435, 48 h, read-out: Activity
SF-539 [21] = assay: Cytotoxicity against human SF539 cells assessed as cell growth at 100 uM after 48 hrs by sulforhodamine B assay relative to control; settings: SF-539, 48 h, read-out: Activity

In the case of `COc1ccc(-c2cc(/C=C/C(=O)c3ccc(N)cc3)[nH]n2)cc1OC`, the growth at 10 µM (MCF7) is reported as -6%, the growth at 10 µM (MDA-MB-468 [1]) is reported as -65% and the growth at 0.1 µM (SF-539 [2]) is reported as 97%. For the same molecule, the growth at 1 µM (UACC-257) was 96%, the growth at 1 µM (SF-539 [3]) was 88% and the GI50 (M14) was 2.28 µM. The LC50 (concentration killing 50% of cells) (M14) was 15 µM, the TGI (M14) was 5.11 µM and the growth at 0.01 µM (DU-145 [4]) was 109%. For the same molecule, the growth at 0.1 µM (NCI-H23) was 103%, the growth at 1 µM (SK-MEL-28) was 89% and the growth at 100 µM (SK-MEL-5) was -94%. The growth at 1 µM (CCRF-CEM [5]) was 68%, the growth at 100 µM (PC-3 [6]) was -48% and the GI50 (MDA-MB-468 [7]) was 1.55 µM. For the same molecule, the LC50 (MDA-MB-468 [7]) was 7.8 µM, the TGI (MDA-MB-468 [7]) was 3.48 µM and the growth at 0.1 µM (OVCAR-4 [8]) was 90%. It also gave a growth at 0.1 µM (SW-620) of 97%, a growth at 0.1 µM (CCRF-CEM [9]) of 97% and a growth at 1 µM (DU-145 [10]) of 97%. It also gave a growth at 10 µM (OVCAR-3) of -56%, a growth at 1 µM (NCI/ADR-RES [11]) of 99% and a growth at 0.01 µM (MDA-MB-435 [12]) of 91%. The growth at 0.1 µM (Hs-578T) was 93%, the growth at 10 µM (U-251 [13]) was -68% and the growth at 0.01 µM (PC-3 [14]) was 95%. The GI50 (LOX IMVI) was 1.92 µM, the LC50 (LOX IMVI) was 7.98 µM and the TGI (LOX IMVI) was 3.91 µM. The growth at 1 µM (U-251 [15]) was 88%, the growth at 10 µM (NCI-H226 [16]) was -13% and the growth at 0.01 µM (SR) was 98%. The growth at 1 µM (OVCAR-8) was 93%, the growth at 0.1 µM (NCI/ADR-RES [17]) was 104% and the growth at 0.1 µM (COLO 205) was 95%. For the same molecule, the growth at 0.01 µM (NCI-H226 [18]) was 93%, the growth at 10 µM (HCT-15) was -27% and the growth at 100 µM (OVCAR-4 [19]) was -98%. For the same molecule, the growth at 0.1 µM (HT-29) was 107%, the growth at 1 µM (MDA-MB-435 [20]) was 94% and the growth at 100 µM (SF-539 [21]) was -92%.
